Consider five compounds from US10975119B2, “Selective cysteine protease inhibitors and uses thereof” (Genesis Technologies Limited, priority 2011, dated 2021).

SMILES strings stand for the structures. Values joined by “and” are separate entries in the source; they are usually repeats but may differ in a detail not shown here. Equal values may be shown once. Where a name gives a salt, the structure may show the parent alone. Read-outs that look alike come from different tables or passages of the source. Where only a bound is given, the exact number is not on record here.

What all share (assay type): biochemical
Experiment [1] has as its target T1, Caspase-3 (Homo sapiens, UniProt P42574).
T1 construct: mixing the compounds with the respective active caspases; purchased BioVision K153-100
T1 sequence (P42574 29-175 limits assumed): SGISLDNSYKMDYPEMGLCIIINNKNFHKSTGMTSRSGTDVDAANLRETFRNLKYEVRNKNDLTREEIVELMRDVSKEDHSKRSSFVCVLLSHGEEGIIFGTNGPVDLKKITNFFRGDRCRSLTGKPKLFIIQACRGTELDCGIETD
T1 sequence (P42574 176-277 limits assumed): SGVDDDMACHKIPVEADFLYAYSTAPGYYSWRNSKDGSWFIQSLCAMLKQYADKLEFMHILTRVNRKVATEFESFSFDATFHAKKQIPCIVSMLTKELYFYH
Nature of the experiment: Caspase-3 inhibitor screening assay (BioVision kit, DEVD-AFC). As to conditions: for inhibition at 10 µM: read-out: % Inhibition at 10 uM Casp3; for inhibition at 100 µM: read-out: % Inhibition at 100 uM Casp3. The method, then: (§1) The efficacy of an array of compounds as an inhibitor of the activity of Caspases 1 through 10 were assessed by using the respective Caspase Inhibitor Drug Screening Kits (Caspase-1 Catalog #: K151-100, Caspase-2 Catalog #: K152-100, Caspase-3 Catalog #: K153-100, Caspase-4 Catalog #: K154-100, Caspase-5 Catalog #: K155-100, Caspase-6 Catalog #: K156-100, Caspase-7 Catalog #: K157-100, Caspase-8 Catalog #: K158-100, Caspase-9 Catalog #: K159-100, Caspase-10 Catalog #: K160-100, BioVision) following the instructions of the manufacturer. […] Active caspases cleaved their respective synthetic substrates to release free AFC, which was then quantified by fluorometry.
(§2) Briefly, the compounds were first tested at 2 concentrations (10 uM and 100 uM final) to determine if there is a hit. […] Each condition was tested in duplicates. […] For some samples, a smaller range of concentrations was tested depending on the % Inhibition results at 10 uM and 100 uM. Results were summarized in Tables 2, 3, and 4 herein after. Table 2 represents the IC50 values (uM) of the test compounds as inhibitors of the activity of the various caspases.
(§3) (*) RFU (no inhibitor control)—RFU (compound at a specific concentration)
(§4) RFU (no inhibitor control)

The target of experiment [2] is T2, Caspase-5 (Homo sapiens, UniProt P51878).
T2 construct: mixing the compounds with the respective active caspases; purchased BioVision K155-100
T2 sequence (P51878 137-327 limits assumed): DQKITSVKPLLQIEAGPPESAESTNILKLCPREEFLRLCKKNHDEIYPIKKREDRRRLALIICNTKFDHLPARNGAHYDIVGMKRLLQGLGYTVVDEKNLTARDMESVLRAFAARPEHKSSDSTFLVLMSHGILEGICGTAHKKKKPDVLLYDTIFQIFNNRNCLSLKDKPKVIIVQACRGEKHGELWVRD
T2 sequence (P51878 347-434 limits assumed): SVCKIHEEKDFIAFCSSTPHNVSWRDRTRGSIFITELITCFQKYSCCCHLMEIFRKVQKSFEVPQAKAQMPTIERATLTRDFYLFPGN
In words: Caspase-5 inhibitor screening assay (BioVision kit, WEHD-AFC). As to conditions: for inhibition at 10 µM: read-out: % Inhibition at 10 uM Casp5; for inhibition at 100 µM: read-out: % Inhibition at 100 uM Casp5. The method, then: as §1, §2, §3, §4

Experiment [3] addresses T3, Caspase-6 (Homo sapiens, UniProt P55212).
T3 construct: mixing the compounds with the respective active caspases; purchased BioVision K156-100
T3 sequence (P55212 24-179 limits assumed): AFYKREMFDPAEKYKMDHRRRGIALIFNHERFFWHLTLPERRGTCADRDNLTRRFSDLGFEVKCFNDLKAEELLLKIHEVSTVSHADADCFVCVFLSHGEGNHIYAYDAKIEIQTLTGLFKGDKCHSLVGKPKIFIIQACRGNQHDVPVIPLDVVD
T3 sequence (P55212 194-293 limits assumed): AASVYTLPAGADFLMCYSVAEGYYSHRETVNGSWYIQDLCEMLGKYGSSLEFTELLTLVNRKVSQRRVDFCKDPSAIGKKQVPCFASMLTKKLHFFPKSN
In words: Caspase-6 inhibitor screening assay (BioVision kit, VEID-AFC). As to conditions: for inhibition at 10 µM: read-out: % Inhibition at 10 uM Casp6; for inhibition at 100 µM: read-out: % Inhibition at 100 uM Casp6; for IC50: read-out: IC50 Casp6. The method, then:
as §1, §2, §3, §4

For experiment [4], the target named is T4, Caspase-10 (Homo sapiens, UniProt Q92851).
T4 construct: mixing the compounds with the respective active caspases; purchased BioVision K160-100
T4 sequence (Q92851 220-415 limits assumed): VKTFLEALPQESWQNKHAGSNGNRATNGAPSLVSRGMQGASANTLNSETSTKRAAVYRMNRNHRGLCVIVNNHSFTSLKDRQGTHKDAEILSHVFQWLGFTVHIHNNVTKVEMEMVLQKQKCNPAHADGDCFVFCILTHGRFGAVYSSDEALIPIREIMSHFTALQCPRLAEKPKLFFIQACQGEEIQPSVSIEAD
T4 sequence (Q92851 416-521 limits assumed): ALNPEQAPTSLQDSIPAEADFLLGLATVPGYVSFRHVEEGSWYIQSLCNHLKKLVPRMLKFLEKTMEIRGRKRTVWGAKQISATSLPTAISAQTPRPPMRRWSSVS
Nature of the experiment: Caspase-10 inhibitor screening assay (BioVision kit, AEVD-AFC). As to conditions: for inhibition at 10 µM: read-out: % Inhibition at 10 uM Casp10; for inhibition at 100 µM: read-out: % Inhibition at 100 uM Casp10. The method, then: as §1, §2, §3, §4

In experiment [5] the target is T5, Caspase-8 (Homo sapiens, UniProt Q14790).
T5 construct: mixing the compounds with the respective active caspases; purchased BioVision K158-100
In words: Caspase-8 inhibitor screening assay (BioVision kit, IETD-AFC). As to conditions: for inhibition at 10 µM: read-out: % Inhibition at 10 uM Casp8; for inhibition at 100 µM: read-out: % Inhibition at 100 uM Casp8; for IC50: read-out: IC50 Casp8. The method, then: as §1, §2, §3, §4

Experiment [6] concerns the target T6, Caspase-4 (Homo sapiens, UniProt P49662).
T6 construct: mixing the compounds with the respective active caspases; purchased BioVision K154-100
T6 sequence (P49662 81-270 limits assumed): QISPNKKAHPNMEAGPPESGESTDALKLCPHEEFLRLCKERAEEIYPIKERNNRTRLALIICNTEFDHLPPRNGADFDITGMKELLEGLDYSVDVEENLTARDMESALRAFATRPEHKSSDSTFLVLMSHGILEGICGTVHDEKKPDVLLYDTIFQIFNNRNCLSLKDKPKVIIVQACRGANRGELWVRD
T6 sequence (P49662 290-377 limits assumed): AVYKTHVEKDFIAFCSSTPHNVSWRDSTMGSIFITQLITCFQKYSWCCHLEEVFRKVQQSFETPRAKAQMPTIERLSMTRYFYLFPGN
Nature of the experiment: Caspase-4 inhibitor screening assay (BioVision kit, LEVD-AFC). As to conditions: for inhibition at 10 µM: read-out: % Inhibition at 10 uM Casp4; for inhibition at 100 µM: read-out: % Inhibition at 100 uM Casp4. The method, then: as §1, §2, §3, §4

Setting [7] is: read-out: potency (IC50) against caspase-10.

T5 sequence (Q14790 217-374 limits assumed): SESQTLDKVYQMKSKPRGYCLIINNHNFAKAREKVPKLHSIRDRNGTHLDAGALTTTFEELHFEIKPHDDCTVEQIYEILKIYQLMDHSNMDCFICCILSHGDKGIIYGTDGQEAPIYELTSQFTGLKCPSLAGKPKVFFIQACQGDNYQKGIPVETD
T5 sequence (Q14790 385-479 limits assumed): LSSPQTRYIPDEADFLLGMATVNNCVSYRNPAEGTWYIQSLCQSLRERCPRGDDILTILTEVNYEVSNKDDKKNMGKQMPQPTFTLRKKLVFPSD

Consider `CC(C)(C)[C@H](NC(=O)[C@H](CC(=O)O)NC(=O)OCc1ccccc1)C(=O)N1CCCC1C(=O)N[C@H](/C=C/S(C)(=O)=O)CC(=O)O` (stereo in doubt) [Compound 26, Z-Asp-t-Leu-Pro-Asp-methyl vinyl sulfone], for which the inhibition – broadly, the relative decrease from the control value, in per cent – at 10 µM worked out at 98% in experiment [1]; 50% in experiment [2]; 0% in experiment [3]; 99% in experiment [4]; 82% in experiment [5] (10 uM); 88% in experiment [6]. Further, the inhibition at 100 µM in experiment [1] stood at 100%; in experiment [2] it was 91%; in experiment [3], 7%; in experiment [4], 100%; in experiment [5] (100 uM), 99%; in experiment [6], 100%. In addition, the IC50 (as a rule, the midpoint of a concentration-inhibition curve) was 120 nM in experiment [1] (read-out: IC50 Casp3); 123 nM in experiment [1] (read-out: potency (IC50) against caspase-3); 9880 nM in experiment [2] (read-out: IC50 Casp5); greater than 100000 nM in experiment [3]; 160 nM in experiment [4] (read-out: IC50 Casp10); 161 nM in experiment [4] (setting [7]). The IC50 amounted to 2230 nM in experiment [5] and 3270 nM in experiment [6] (read-out: IC50 Casp4).

With `CS(=O)(=O)/C(Cl)=C/[C@@H](N)CC(=O)O` [Compound 4, Asp achlorovinyl methyl vinyl sulfone, Tosyl Salt], the inhibition at 10 µM in experiment [1] worked out at 4%; in experiment [2] it was 0%; in experiment [3], 0%; in experiment [4], 36%; in experiment [5] it was 6%; in experiment [6] it was 0%. Besides, the inhibition at 100 µM is 7% in experiment [1]; 1% in experiment [2]; 0% in experiment [3]; 43% in experiment [4]; 13% in experiment [5]; 0% in experiment [6]. The 50% inhibitory concentration (IC50) in experiment [1] (read-out: IC50 Casp3), in experiment [2] (read-out: IC50 Casp5), in experiment [3], in experiment [4] (read-out: IC50 Casp10), in experiment [5] and in experiment [6] (read-out: IC50 Casp4) was greater than 100000 nM in each case.

On to `CS(=O)(=O)/C=C/[C@H](CC(=O)O)NC(=O)[C@H](CCC(=O)O)NC(=O)c1ccc2ccccc2n1` [Compound 18, 2-Quinoline carbonyl-Glu-Asp methyl vinyl sulfone], for which the inhibition at 10 µM in experiment [1] came to 4%; in experiment [2] it was 0%; in experiment [3] it was 0%; in experiment [4], 14%; in experiment [5] (10 uM), 0%; in experiment [6], 0%. The inhibition at 100 µM in experiment [1] stood at 2%; in experiment [2], 1%; in experiment [3], 8%; in experiment [4] it was 0%; in experiment [5] (100 uM) it was 0%; in experiment [6], 0%. Also, the half-inhibitory concentration (IC50) in experiment [1] (read-out: IC50 Casp3), in experiment [2] (read-out: IC50 Casp5), in experiment [3], in experiment [4] (read-out: IC50 Casp10), in experiment [5] and in experiment [6] (read-out: IC50 Casp4) was greater than 100000 nM in each case.

`CCC(C)[C@H](NC(=O)[C@H](CCC(=O)O)NC(=O)[C@@H](NC(=O)OCc1ccccc1)C(C)C)C(=O)N[C@H](/C=C/S(C)(=O)=O)CC(=O)O` (stereo partly drawn) [Compound 38, Z-Val-Glu-Ile-Asp-methyl vinyl sulfone]: the inhibition at 10 µM came out at 63% in experiment [1]; 32% in experiment [2]; 88% in experiment [3]; 100% in experiment [4]; 97% in experiment [5] (10 uM); 100% in experiment [6]. In addition, the inhibition at 100 µM is 89% in experiment [1]; 81% in experiment [2]; 96% in experiment [3]; 100% in experiment [4]; 100% in experiment [5] (100 uM); 100% in experiment [6]. Also, the IC50 in experiment [1] (read-out: IC50 Casp3) was 6960 nM; in experiment [2] (read-out: IC50 Casp5), 19600 nM; in experiment [3], 600 nM; in experiment [4] (read-out: IC50 Casp10), 130 nM; in experiment [5], 660 nM; in experiment [6] (read-out: IC50 Casp4), 375 nM.

`CC(C)(C)[C@H](NC(=O)c1ccc(N)c(Cl)c1)C(=O)N1CCCC1C(=O)N[C@H](/C=C/S(C)(=O)=O)CC(=O)O` (stereo in doubt) [Compound 14, 4-amino-3-chlorobenzene carbonyl-t-Leu-Pro-Asp methyl vinyl sulfone]: the inhibition at 10 µM in experiment [1] turned out to be 7%; in experiment [2], 96%; in experiment [3], 3%; in experiment [4] it was 81%; in experiment [5] (10 uM) it was 46%; in experiment [6], 100%. The inhibition at 100 µM in experiment [1] worked out at 18%; in experiment [2], 100%; in experiment [3] it was 30%; in experiment [4] it was 100%; in experiment [5] (100 uM) it was 95%; in experiment [6], 100%. Moreover, the IC50 is greater than 100000 nM in experiment [1] (read-out: IC50 Casp3); 560 nM in experiment [2] (read-out: IC50 Casp5); 563 nM in experiment [2] (read-out: potency (IC50) against caspase-5); greater than 100000 nM in experiment [3]; 2670 nM in experiment [4] (read-out: IC50 Casp10); 2670 nM in experiment [4] (setting [7]). Further, the 50% inhibitory concentration (IC50) in experiment [5] was 12800 nM and 12900 nM; in experiment [6] (read-out: IC50 Casp4), 90 nM; in experiment [6] (read-out: potency (IC50) against caspase-4), 87 nM.
